Experimental data as given in US20260274895A1, “DE NOVO DESIGNED MEMBRANE-TRAVERSING AND ORALLY BIOAVAILABLE MACROCYCLES” (UNIVERSITY OF WASHINGTON, priority 2022, published 2026).
Where two headings read alike, the source gives them in different places. Where a SMILES comes first, the peptide text is derived from it. [ ]: non-standard residue; d: D form. dNMeI = CC[C@@H](C)[C@@H](NC)C(=O)O; NMeF = CN[C@@H](Cc1ccccc1)C(=O)O; dNMeF = CN[C@H](Cc1ccccc1)C(=O)O; NMeL = CN[C@@H](CC(C)C)C(=O)O; dNMeL = CN[C@H](CC(C)C)C(=O)O; dNMeV = CN[C@@H](C(=O)O)C(C)C; NMeV = CN[C@H](C(=O)O)C(C)C; NMeA = CN[C@@H](C)C(=O)O; dNMeA = CN[C@H](C)C(=O)O; Sar = CNCC(=O)O

Legend:
[1] = PAMPA, PAMPA_Papp_Avg (apparent permeability)
[2] = PAMPA
[3] = Plasma exposure, oral bioavailability and tolerability after single-dose IV, SQ and PO administration; settings: in vivo
[4] = Parallel artificial membrane permeability assay (PAMPA); settings: average of three replicates; 16-20 hours incubation, 5% DMSO PBS

Compound	Papp [1]	other results
CC(C)C[C@@H]1C(=O)N[C@H](CC(C)C)C(=O)N2CCC[C@@H]2C(=O)N2CCC[C@H]2C(=O)N(C)[C@H](CC(C)C)C(=O)N[C@H](CC(C)C)C(=O)N2CCC[C@@H]2C(=O)N2CCC[C@H]2C(=O)N1C [Design D8.4, pP*llpP*ll] (cyclo([dNMeL][dL][dP]P[dNMeL][dL][dP]P))	0.0358 ×10⁻⁶ cm/s	PAMPA_Papp_Avg (apparent permeability) [2]: 0.136 ×10⁻⁶ cm/s
CC[C@@H](C)[C@H]1NC(=O)[C@@H](CC(C)C)NC(=O)[C@@H](CC(C)C)NC(=O)[C@H]2CCCN2C(=O)[C@H](CC(C)C)N(C)C(=O)[C@@H](C)N(C)C(=O)[C@@H]2CCCN2C(=O)[C@@H]([C@H](C)CC)NC(=O)[C@@H](C(C)C)NC(=O)[C@@H]2CCCN2C1=O [Design D10.46, PviP*a*Lplli] (cyclo([NMeL][dP][dL][dL][dI]P[dV][dI]P[dNMeA]))	0.388 ×10⁻⁶ cm/s	–
CC(C)C[C@@H]1NC(=O)[C@@H](Cc2ccccc2)N(C)C(=O)[C@H](C(C)C)NC(=O)[C@H](C)NC(=O)[C@@H](C)NC(=O)[C@@H](Cc2ccccc2)N(C)C(=O)[C@@H]2CCCN2C(=O)[C@H](C(C)C)NC(=O)[C@@H]2CCCN2C(=O)[C@@H](C)NC1=O [Design D10.48, aPVP*faAV*fL] (cyclo(AV[dNMeF]L[dA]PVP[dNMeF][dA]))	0.716 ×10⁻⁶ cm/s	–
CC[C@H](C)[C@@H]1NC(=O)[C@H](Cc2ccccc2)N(C)C(=O)[C@H]2CCCN2C(=O)[C@@H](CC(C)C)N(C)C(=O)[C@@H](Cc2ccccc2)NC(=O)[C@H](C(C)C)NC(=O)[C@H](CC(C)C)NC(=O)[C@H]2CCCN2C(=O)[C@H](CC(C)C)NC(=O)[C@@H]2CCCN2C1=O [Design D10.50, LVf*lp*FIPLp] (cyclo(IPL[dP]LV[dF][dNMeL][dP][NMeF]))	0.628 ×10⁻⁶ cm/s	–
CC[C@@H](C)[C@H]1NC(=O)[C@@H]2CCCN2C(=O)[C@@H]([C@H](C)CC)NC(=O)CN(C)C(=O)[C@H](CC(C)C)NC(=O)[C@@H](Cc2ccccc2)NC(=O)[C@H](CC(C)C)N(C)C(=O)[C@H]2CCCN2C(=O)[C@@H](CC(C)C)NC(=O)[C@H](CC(C)C)NC(=O)[C@H]2CCCN2C1=O [Design D11.2] (cyclo(L[Sar][dI]P[dI][dP]L[dL][dP][NMeL][dF]))	–	bioavailability [3]: 7.5 to 11%
CC[C@H](C)[C@@H]1NC(=O)[C@@H]2CCCN2C(=O)[C@H]2CCCN2C(=O)[C@@H](CC(C)C)NC(=O)[C@@H](CC(C)C)N(C)C(=O)[C@@H](C(C)C)NC(=O)[C@H](C(C)C)NC(=O)[C@H]2CCCN2C(=O)[C@@H]2CCCN2C(=O)[C@H]([C@@H](C)CC)NC(=O)[C@H](C)N(C)C1=O [Design D11.13, PpVv*llpPI*AI] (cyclo(I[NMeA]IP[dP]V[dV][dNMeL][dL][dP]P))	1.43 ×10⁻⁶ cm/s	–
CC(C)C[C@@H]1NC(=O)[C@H](CC(C)C)N(C)C(=O)[C@H]2CCCN2C(=O)[C@H]2CCCN2C(=O)[C@H](CC(C)C)NC(=O)[C@@H](CC(C)C)N(C)C(=O)[C@@H](C)NC(=O)[C@@H](CC(C)C)N(C)C(=O)[C@H]2CCCN2C(=O)[C@@H](CC(C)C)NC(=O)[C@@H](C)N(C)C1=O [Design D11.15, Lpp*LL*alp*la*l] (cyclo(L[dNMeA][dL][dP][dNMeL][dA][dNMeL]L[dP][dP][NMeL]))	–	PAMPA_Papp_Avg (apparent permeability) [4]: 1.29 ×10⁻⁶ cm/s
CC(C)C[C@@H]1C(=O)N(C)[C@@H](Cc2ccccc2)C(=O)N[C@@H](C(C)C)C(=O)N2CCC[C@H]2C(=O)NCC(=O)N2CCC[C@H]2C(=O)N(C)[C@H](CC(C)C)C(=O)N[C@@H](C(C)C)C(=O)N[C@H](CC(C)C)C(=O)N1C [SEQ ID NO 69, *lvl*l*FVPGP] (cyclo(GP[dNMeL]V[dL][dNMeL][NMeF]VP))	0.946 ×10⁻⁶ cm/s	–
CC(C)C[C@@H]1NC(=O)[C@@H]2CCCN2C(=O)[C@@H](Cc2ccccc2)NC(=O)[C@H](C)N(C)C(=O)[C@H](CC(C)C)NC(=O)[C@H](CC(C)C)N(C)C(=O)[C@@H](C)NC(=O)[C@@H](CC(C)C)NC(=O)[C@@H]2CCCN2C(=O)[C@@H](Cc2ccccc2)NC1=O [SEQ ID NO 108, LfPla*LL*AfP] (cyclo(L[NMeA][dF]PL[dF]P[dL][dA][NMeL]))	3.92 ×10⁻⁶ cm/s	–
CC[C@@H](C)[C@H]1NC(=O)[C@@H](CC(C)C)N(C)C(=O)[C@@H]2CCCN2C(=O)[C@H](C(C)C)NC(=O)[C@@H](C)N(C)C(=O)[C@@H]2CCCN2C(=O)[C@@H](CC(C)C)NC(=O)[C@@H](C(C)C)N(C)C(=O)[C@@H]2CCCN2C(=O)[C@H](C)NC(=O)[C@H](C(C)C)NC(=O)[C@@H]2CCCN2C1=O [SEQ ID NO 117, VP*liPVAP*vlP*a] (cyclo(AP[dNMeV][dL]P[dNMeA]VP[dNMeL][dI]PV))	–	PAMPA_Papp_Avg (apparent permeability) [4]: 0.1 ×10⁻⁶ cm/s

The next lines start with results.

Papp [1]	Compound	other results
1.84 ×10⁻⁶ cm/s	CC[C@@H](C)[C@H]1NC(=O)[C@H]([C@@H](C)CC)NC(=O)[C@H](Cc2ccccc2)N(C)C(=O)[C@H]2CCCN2C(=O)[C@@H]([C@H](C)CC)NC(=O)[C@@H]([C@H](C)CC)N(C)C(=O)[C@H](CC(C)C)NC(=O)[C@H]2CCCN2C(=O)[C@@H]2CCCN2C(=O)[C@H](C(C)C)NC(=O)[C@H]2CCCN2C1=O [Design D11.4, VPpL*iip*FIip] (cyclo(I[dI][dP]VP[dP]L[dNMeI][dI][dP][NMeF]))	–
1.7 ×10⁻⁶ cm/s	CC[C@@H](C)[C@H]1NC(=O)[C@H](C)NC(=O)[C@@H](CC(C)C)N(C)C(=O)[C@H](CC(C)C)N(C)C(=O)[C@H](C(C)C)NC(=O)[C@@H]2CCCN2C(=O)[C@@H](CC(C)C)N(C)C(=O)[C@@H](C)N(C)C(=O)[C@@H](Cc2ccccc2)NC(=O)[C@@H]2CCCN2C(=O)[C@H]2CCCN2C1=O [Design D11.6, V*L*lAipPf*a*lP] (cyclo([dF][dNMeA][dNMeL]PV[NMeL][dNMeL]A[dI][dP]P))	–
2.81 ×10⁻⁶ cm/s	CC[C@H](C)[C@@H]1NC(=O)[C@@H](CC(C)C)N(C)C(=O)[C@H](CC(C)C)N(C)C(=O)[C@@H](Cc2ccccc2)NC(=O)[C@@H](CC(C)C)N(C)C(=O)[C@H]2CCCN2C(=O)[C@H]2CCCN2C(=O)[C@@H]2CCCN2C(=O)[C@@H](C(C)C)NC(=O)[C@@H]2CCCN2C(=O)[C@H](C)NC1=O [Design D11.11, Ppp*lf*L*lIAPv] (cyclo(AP[dV]P[dP][dP][dNMeL][dF][NMeL][dNMeL]I))	–
0.993 ×10⁻⁶ cm/s	CC(C)C[C@@H]1NC(=O)[C@@H](C)NC(=O)[C@H]2CCCN2C(=O)[C@@H]2CCCN2C(=O)[C@@H](C(C)C)NC(=O)[C@@H](CC(C)C)N(C)C(=O)[C@H]2CCCN2C(=O)[C@H]2CCCN2C(=O)[C@@H](C)N(C)C(=O)[C@H](CC(C)C)N(C)C(=O)[C@@H](Cc2ccccc2)NC1=O [Design D11.16, Lf*L*app*lvPpa] (cyclo(L[dF][NMeL][dNMeA][dP][dP][dNMeL][dV]P[dP][dA]))	–
1.1 ×10⁻⁶ cm/s	CC[C@H](C)[C@@H]1NC(=O)[C@H](C(C)C)NC(=O)[C@@H](CC(C)C)N(C)C(=O)[C@H](Cc2ccccc2)NC(=O)[C@@H](CC(C)C)N(C)C(=O)[C@@H](C)N(C)C(=O)[C@H]2CCCN2C(=O)[C@@H]2CCCN2C(=O)[C@H](CC(C)C)NC(=O)[C@@H](C)N(C)C(=O)[C@@H]2CCCN2C1=O [Design D11.20, P*aLPp*a*lF*lVI] (cyclo(F[dNMeL]VIP[dNMeA]LP[dP][dNMeA][dNMeL]))	–
0.206 ×10⁻⁶ cm/s	CC[C@H](C)[C@@H]1NC(=O)[C@@H]2CCCN2C(=O)[C@H]2CCCN2C(=O)[C@@H](Cc2ccccc2)NC(=O)[C@@H](CC(C)C)N(C)C(=O)[C@H](C(C)C)NC(=O)[C@@H](CC(C)C)NC(=O)[C@@H]2CCCN2C(=O)[C@H]2CCCN2C(=O)[C@@H](C)N(C)C(=O)[C@H](C(C)C)N(C)C1=O [Design D11.21, PI*V*apPlV*lfp] (cyclo(I[NMeV][dNMeA][dP]P[dL]V[dNMeL][dF][dP]P))	–
0.417 ×10⁻⁶ cm/s	CC(C)C[C@H]1NC(=O)[C@@H](C)NC(=O)[C@@H](C)NC(=O)[C@H]2CCCN2C(=O)[C@@H]2CCCN2C(=O)[C@H]2CCCN2C(=O)[C@@H](C)NC(=O)[C@@H](Cc2ccccc2)N(C)C(=O)[C@H]2CCCN2C(=O)[C@@H](CC(C)C)NC(=O)[C@@H](CC(C)C)NC1=O [Design D11.25, lp*fapPpaall] (cyclo([dP][dA][dA][dL][dL][dL][dP][dNMeF][dA][dP]P))	–
1.39 ×10⁻⁶ cm/s	CC[C@H](C)[C@@H]1NC(=O)[C@H](Cc2ccccc2)N(C)C(=O)[C@H]2CCCN2C(=O)[C@H]([C@@H](C)CC)NC(=O)[C@@H](C)N(C)C(=O)[C@@H](C)NC(=O)[C@@H]2CCCN2C(=O)[C@H]2CCCN2C(=O)[C@H](CC(C)C)NC(=O)[C@@H](CC(C)C)NC(=O)[C@H](CC(C)C)NC(=O)[C@H]2CCCN2C1=O [Design D12.6, p*FIpLILpPa*aI] (cyclo([dA][dNMeA]I[dP][NMeF]I[dP]L[dL]L[dP]P))	–
2.69 ×10⁻⁶ cm/s	CC[C@@H](C)[C@H]1NC(=O)[C@H](CC(C)C)N(C)C(=O)[C@H]2CCCN2C(=O)[C@H](CC(C)C)NC(=O)[C@@H](Cc2ccccc2)N(C)C(=O)[C@H](CC(C)C)N(C)C(=O)[C@@H](C(C)C)NC(=O)[C@H](C)NC(=O)[C@H]2CCCN2C(=O)[C@@H]2CCCN2C1=O [SEQ ID NO 94, *L*fLp*LiPpAv] (cyclo(A[dV][NMeL][dNMeF]L[dP][NMeL][dI]P[dP]))	–
